US9790210B2, “N-(monocyclic aryl),N'-pyrazolyl-urea, thiourea, guanidine and cyanoguanidine compounds as TrkA kinase inhibitors” (Array BioPharma Inc., priority 2012, dated 2017)

Legend:
BLK_m = target: T1, BLK_m (Mus musculus, UniProt P16277); assay: KinaseProfiler; assay type: biochemical; conditions: 10 μM, ATP near Km
T1 construct: purchased Millipore (KinaseProfiler service)
Method: (§1) A representative compound (Example 15) of the invention was tested for off-target kinase activity at a concentration of 10 μM by Millipore, Inc. in their KinaseProfiler™ service against all the kinases available in their full kinase panel. The compound was run in duplicate at a concentration of ATP near the Km for each individual kinase according to Millipore's specifications. The results are shown in Table B. Data are reported as percent of control (POC) and are the average of the two replicates.

CDK2/cyclinE = target: T2, CDK2/cyclinE (Homo sapiens, UniProt P24941); assay: KinaseProfiler; assay type: biochemical; conditions: 10 μM, ATP near Km
T2 construct: purchased Millipore, Inc. (KinaseProfiler service)
Method: as §1

CDK3/cyclinE = target: T3, CDK3/cyclinE (Homo sapiens, UniProt Q00526); assay: KinaseProfiler; assay type: biochemical; conditions: 10 μM, ATP near Km
T3 construct: purchased Millipore, Inc. (KinaseProfiler service)
Method: as §1

CK1delta = target: T4, CK1delta (Homo sapiens, UniProt P48730); assay: KinaseProfiler; assay type: biochemical; conditions: 10 μM, ATP near Km
T4 construct: purchased Millipore, Inc. (KinaseProfiler service)
T4 sequence (P48730 whole entry): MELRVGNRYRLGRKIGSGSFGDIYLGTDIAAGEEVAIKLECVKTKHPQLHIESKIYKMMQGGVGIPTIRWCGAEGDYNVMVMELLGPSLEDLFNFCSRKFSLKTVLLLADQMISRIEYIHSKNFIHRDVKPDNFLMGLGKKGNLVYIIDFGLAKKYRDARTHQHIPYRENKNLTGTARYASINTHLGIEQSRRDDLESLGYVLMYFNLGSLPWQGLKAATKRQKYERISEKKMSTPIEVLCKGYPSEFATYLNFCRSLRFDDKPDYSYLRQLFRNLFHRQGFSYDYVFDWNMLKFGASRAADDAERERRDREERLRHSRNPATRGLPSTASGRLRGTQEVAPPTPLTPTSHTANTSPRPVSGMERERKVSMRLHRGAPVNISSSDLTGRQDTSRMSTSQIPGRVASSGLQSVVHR
Method: as §1

CK1gamma3 = target: T5, CK1gamma3 (Homo sapiens, UniProt Q9Y6M4); assay: KinaseProfiler; assay type: biochemical; conditions: 10 μM, ATP near Km
T5 construct: purchased Millipore, Inc. (KinaseProfiler service)
Method: as §1

CK2 = target: T6, CK2 (Homo sapiens, UniProt P68400); assay: KinaseProfiler; assay type: biochemical; conditions: 10 μM, ATP near Km
T6 construct: purchased Millipore, Inc. (KinaseProfiler service)
T6 sequence (P68400 whole entry): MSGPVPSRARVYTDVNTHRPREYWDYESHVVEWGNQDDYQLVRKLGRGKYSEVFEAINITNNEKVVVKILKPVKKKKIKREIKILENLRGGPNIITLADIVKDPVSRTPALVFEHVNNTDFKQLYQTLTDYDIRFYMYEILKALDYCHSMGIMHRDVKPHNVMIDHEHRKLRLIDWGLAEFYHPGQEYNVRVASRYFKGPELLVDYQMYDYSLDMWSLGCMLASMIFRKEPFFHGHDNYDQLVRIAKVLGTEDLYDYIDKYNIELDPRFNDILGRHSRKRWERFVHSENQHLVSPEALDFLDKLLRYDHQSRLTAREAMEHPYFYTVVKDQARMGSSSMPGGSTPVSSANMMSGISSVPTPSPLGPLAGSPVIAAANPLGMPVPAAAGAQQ
T6 sequence (P67870 whole entry partner): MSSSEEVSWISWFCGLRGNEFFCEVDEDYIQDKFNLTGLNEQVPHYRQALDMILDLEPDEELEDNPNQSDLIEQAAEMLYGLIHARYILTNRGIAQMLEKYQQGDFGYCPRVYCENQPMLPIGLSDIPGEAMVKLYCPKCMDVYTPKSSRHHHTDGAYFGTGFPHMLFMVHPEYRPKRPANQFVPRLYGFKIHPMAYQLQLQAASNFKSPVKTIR
Method: as §1

EGFR = target: T7, EGFR (Homo sapiens, UniProt P00533); assay: KinaseProfiler; assay type: biochemical; conditions: 10 μM, ATP near Km
T7 construct: purchased Millipore, Inc. (KinaseProfiler service)
T7 sequence (P00533 25-1210): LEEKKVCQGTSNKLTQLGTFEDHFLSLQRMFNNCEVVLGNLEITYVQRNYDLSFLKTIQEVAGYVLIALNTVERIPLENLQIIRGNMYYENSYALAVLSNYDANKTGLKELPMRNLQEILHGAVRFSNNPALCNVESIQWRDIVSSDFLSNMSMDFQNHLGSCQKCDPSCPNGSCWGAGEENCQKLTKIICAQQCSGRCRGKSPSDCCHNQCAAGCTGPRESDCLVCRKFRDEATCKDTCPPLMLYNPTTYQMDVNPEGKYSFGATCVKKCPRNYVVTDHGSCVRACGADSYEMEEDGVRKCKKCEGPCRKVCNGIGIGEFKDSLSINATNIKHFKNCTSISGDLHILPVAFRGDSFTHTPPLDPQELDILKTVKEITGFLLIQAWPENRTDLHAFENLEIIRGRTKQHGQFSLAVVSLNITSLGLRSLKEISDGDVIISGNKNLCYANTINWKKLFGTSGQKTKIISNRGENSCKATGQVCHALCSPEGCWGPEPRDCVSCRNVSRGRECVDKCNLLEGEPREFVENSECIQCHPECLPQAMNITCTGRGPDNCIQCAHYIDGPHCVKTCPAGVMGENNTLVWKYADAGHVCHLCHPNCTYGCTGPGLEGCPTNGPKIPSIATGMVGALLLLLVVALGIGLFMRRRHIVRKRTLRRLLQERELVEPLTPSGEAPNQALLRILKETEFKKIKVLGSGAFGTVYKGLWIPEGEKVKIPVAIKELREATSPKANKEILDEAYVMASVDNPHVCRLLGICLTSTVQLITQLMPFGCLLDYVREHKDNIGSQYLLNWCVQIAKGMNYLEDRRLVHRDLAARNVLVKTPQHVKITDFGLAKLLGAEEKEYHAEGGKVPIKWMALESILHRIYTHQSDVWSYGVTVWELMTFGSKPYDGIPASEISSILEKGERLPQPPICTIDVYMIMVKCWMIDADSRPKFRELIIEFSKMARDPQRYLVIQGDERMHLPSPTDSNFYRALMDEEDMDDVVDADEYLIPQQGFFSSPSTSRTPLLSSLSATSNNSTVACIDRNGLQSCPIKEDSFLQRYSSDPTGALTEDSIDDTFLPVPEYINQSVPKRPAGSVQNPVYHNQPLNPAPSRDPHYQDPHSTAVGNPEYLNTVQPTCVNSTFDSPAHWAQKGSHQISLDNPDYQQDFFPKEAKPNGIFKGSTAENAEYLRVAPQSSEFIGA
Method: as §1

EphA5 = target: T8, EphA5 (Homo sapiens, UniProt P54756); assay: KinaseProfiler; assay type: biochemical; conditions: 10 μM, ATP near Km
T8 construct: purchased Millipore, Inc. (KinaseProfiler service)
Method: as §1

EphB4 = target: T9, EphB4 (Homo sapiens, UniProt P54760); assay: KinaseProfiler; assay type: biochemical; conditions: 10 μM, ATP near Km
T9 construct: purchased Millipore, Inc. (KinaseProfiler service)
T9 sequence (P54760 16-987): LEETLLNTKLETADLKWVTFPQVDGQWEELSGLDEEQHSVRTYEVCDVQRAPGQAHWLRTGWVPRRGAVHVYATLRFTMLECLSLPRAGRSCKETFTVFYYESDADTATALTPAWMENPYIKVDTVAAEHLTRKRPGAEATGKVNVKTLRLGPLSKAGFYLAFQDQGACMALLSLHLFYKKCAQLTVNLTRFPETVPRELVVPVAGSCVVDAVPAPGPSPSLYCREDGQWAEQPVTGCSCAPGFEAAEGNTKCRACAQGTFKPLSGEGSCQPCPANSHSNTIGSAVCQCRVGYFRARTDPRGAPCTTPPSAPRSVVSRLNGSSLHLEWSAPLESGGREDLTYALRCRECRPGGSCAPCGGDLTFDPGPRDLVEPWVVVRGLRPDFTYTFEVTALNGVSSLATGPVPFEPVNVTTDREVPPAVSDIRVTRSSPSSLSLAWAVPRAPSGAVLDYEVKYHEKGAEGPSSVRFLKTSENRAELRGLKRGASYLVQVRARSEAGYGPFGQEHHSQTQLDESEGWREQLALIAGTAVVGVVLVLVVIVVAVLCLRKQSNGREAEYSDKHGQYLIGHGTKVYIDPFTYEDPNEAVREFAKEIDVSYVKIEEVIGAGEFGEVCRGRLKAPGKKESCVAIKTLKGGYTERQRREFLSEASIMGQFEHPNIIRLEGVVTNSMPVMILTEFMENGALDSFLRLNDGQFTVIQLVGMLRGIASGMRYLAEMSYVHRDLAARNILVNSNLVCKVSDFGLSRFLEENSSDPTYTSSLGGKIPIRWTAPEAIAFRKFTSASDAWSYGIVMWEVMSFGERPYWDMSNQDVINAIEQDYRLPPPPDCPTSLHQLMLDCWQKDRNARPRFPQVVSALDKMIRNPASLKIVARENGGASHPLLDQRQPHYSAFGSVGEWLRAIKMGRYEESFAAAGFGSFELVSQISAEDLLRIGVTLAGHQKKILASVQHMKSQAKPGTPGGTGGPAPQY
Method: as §1

FAK = target: T10, FAK (Homo sapiens, UniProt Q05397); assay: KinaseProfiler; assay type: biochemical; conditions: 10 μM, ATP near Km
T10 construct: purchased Millipore, Inc. (KinaseProfiler service)
Method: as §1

MAPKAP-K5 = target: T11, MAPKAP-K5 (Homo sapiens, UniProt Q8IW41); assay: KinaseProfiler; assay type: biochemical; conditions: 10 μM, ATP near Km
T11 construct: purchased Millipore, Inc. (KinaseProfiler service)
Method: as §1

MICK4_m = target: T12, MICK4_m (Mus musculus, UniProt P47809); assay: KinaseProfiler; assay type: biochemical; conditions: 10 μM, ATP near Km
T12 construct: purchased Millipore, Inc. (KinaseProfiler service)
Method: as §1

MKK6 = target: T13, MKK6 (Homo sapiens, UniProt P52564); assay: KinaseProfiler; assay type: biochemical; conditions: 10 μM, ATP near Km
T13 construct: purchased Millipore, Inc. (KinaseProfiler service)
Method: as §1

MLK1 = target: T14, MLK1 (Homo sapiens, UniProt P80192); assay: KinaseProfiler; assay type: biochemical; conditions: 10 μM, ATP near Km
T14 construct: purchased Millipore, Inc. (KinaseProfiler service)
Method: as §1

MSSK1 = target: T15, MSSK1 (Homo sapiens, UniProt Q9UPE1); assay: KinaseProfiler; assay type: biochemical; conditions: 10 μM, ATP near Km
T15 construct: purchased Millipore, Inc. (KinaseProfiler service)
Method: as §1

MST1 = target: T16, MST1 (Homo sapiens, UniProt Q13043); assay: KinaseProfiler; assay type: biochemical; conditions: 10 μM, ATP near Km
T16 construct: purchased Millipore, Inc. (KinaseProfiler service)
Method: as §1

MST3 = target: T17, MST3 (Homo sapiens, UniProt Q9Y6E0); assay: KinaseProfiler; assay type: biochemical; conditions: 10 μM, ATP near Km
T17 construct: purchased Millipore, Inc. (KinaseProfiler service)
Method: as §1

NEK7 = target: T18, NEK7 (Homo sapiens, UniProt Q8TDX7); assay: KinaseProfiler; assay type: biochemical; conditions: 10 μM, ATP near Km
T18 construct: purchased Millipore, Inc. (KinaseProfiler service)
Method: as §1

PAK4 = target: T19, PAK4 (Homo sapiens, UniProt O96013); assay: KinaseProfiler; assay type: biochemical; conditions: 10 μM, ATP near Km
T19 construct: purchased Millipore, Inc. (KinaseProfiler service)
Method: as §1

PKCtheta = target: T20, PKCtheta (Homo sapiens, UniProt Q04759); assay: KinaseProfiler; assay type: biochemical; conditions: 10 μM, ATP near Km
T20 construct: purchased Millipore, Inc. (KinaseProfiler service)
Method: as §1

PKCzeta = target: T21, PKCzeta (Homo sapiens, UniProt Q05513); assay: KinaseProfiler; assay type: biochemical; conditions: 10 μM, ATP near Km
T21 construct: purchased Millipore, Inc. (KinaseProfiler service)
T21 sequence (Q05513 whole entry): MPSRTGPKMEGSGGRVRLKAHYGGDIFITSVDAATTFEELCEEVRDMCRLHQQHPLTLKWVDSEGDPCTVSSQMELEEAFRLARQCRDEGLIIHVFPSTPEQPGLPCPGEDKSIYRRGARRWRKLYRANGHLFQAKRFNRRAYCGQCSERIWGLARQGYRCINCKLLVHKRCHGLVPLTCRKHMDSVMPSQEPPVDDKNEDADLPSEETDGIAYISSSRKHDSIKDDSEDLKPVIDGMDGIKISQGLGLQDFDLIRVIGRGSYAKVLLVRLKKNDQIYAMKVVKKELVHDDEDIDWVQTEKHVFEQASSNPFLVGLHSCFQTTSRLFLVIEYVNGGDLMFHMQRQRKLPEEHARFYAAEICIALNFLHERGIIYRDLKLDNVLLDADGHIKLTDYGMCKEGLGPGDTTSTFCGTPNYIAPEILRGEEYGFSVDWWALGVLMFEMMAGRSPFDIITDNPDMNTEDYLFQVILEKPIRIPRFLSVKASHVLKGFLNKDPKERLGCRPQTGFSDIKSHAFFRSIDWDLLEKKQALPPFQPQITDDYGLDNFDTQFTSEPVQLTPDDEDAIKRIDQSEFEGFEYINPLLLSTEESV
Method: as §1

PRK2 = target: T22, PRK2 (Homo sapiens, UniProt Q16513); assay: KinaseProfiler; assay type: biochemical; conditions: 10 μM, ATP near Km
T22 construct: purchased Millipore, Inc. (KinaseProfiler service)
Method: as §1

PTK6 = target: T23, PTK6 (Homo sapiens, UniProt Q13882); assay: KinaseProfiler; assay type: biochemical; conditions: 10 μM, ATP near Km
T23 construct: purchased Millipore, Inc. (KinaseProfiler service)
T23 sequence (Q13882 whole entry): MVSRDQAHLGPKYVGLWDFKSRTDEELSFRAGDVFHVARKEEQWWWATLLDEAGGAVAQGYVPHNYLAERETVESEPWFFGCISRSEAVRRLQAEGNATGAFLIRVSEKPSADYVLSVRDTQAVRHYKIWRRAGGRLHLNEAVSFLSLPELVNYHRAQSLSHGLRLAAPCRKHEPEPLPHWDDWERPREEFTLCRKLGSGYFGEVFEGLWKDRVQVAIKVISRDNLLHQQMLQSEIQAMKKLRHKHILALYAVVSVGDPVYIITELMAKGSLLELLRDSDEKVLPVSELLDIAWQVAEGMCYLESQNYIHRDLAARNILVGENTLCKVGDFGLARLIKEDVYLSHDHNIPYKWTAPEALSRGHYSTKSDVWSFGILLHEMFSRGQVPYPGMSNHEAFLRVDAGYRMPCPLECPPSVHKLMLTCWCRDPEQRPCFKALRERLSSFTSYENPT
Method: as §1

PhKgamma2 = target: T24, PhKgamma2 (Homo sapiens, UniProt P15735); assay: KinaseProfiler; assay type: biochemical; conditions: 10 μM, ATP near Km
T24 construct: purchased Millipore, Inc. (KinaseProfiler service)
Method: as §1

Pim-1 = target: T25, Pim-1 (Homo sapiens, UniProt P11309); assay: KinaseProfiler; assay type: biochemical; conditions: 10 μM, ATP near Km
T25 construct: purchased Millipore, Inc. (KinaseProfiler service)
Method: as §1

Pim-2 = target: T26, Pim-2 (Homo sapiens, UniProt Q9P1W9); assay: KinaseProfiler; assay type: biochemical; conditions: 10 μM, ATP near Km
T26 construct: purchased Millipore, Inc. (KinaseProfiler service)
Method: as §1

PrKX = target: T27, PrKX (Homo sapiens, UniProt P51817); assay: KinaseProfiler; assay type: biochemical; conditions: 10 μM, ATP near Km
T27 construct: purchased Millipore, Inc. (KinaseProfiler service)
Method: as §1

SRPK2 = target: T28, SRPK2 (Homo sapiens, UniProt P78362); assay: KinaseProfiler; assay type: biochemical; conditions: 10 μM, ATP near Km
T28 construct: purchased Millipore, Inc. (KinaseProfiler service)
Method: as §1

TEC Activated = target: T29, TEC Activated (Homo sapiens, UniProt P42680); assay: KinaseProfiler; assay type: biochemical; conditions: 10 μM, ATP near Km
T29 construct: purchased Millipore, Inc. (KinaseProfiler service)
Method: as §1

TLK2 = target: T30, TLK2 (Homo sapiens, UniProt Q86UE8); assay: KinaseProfiler; assay type: biochemical; conditions: 10 μM, ATP near Km
T30 construct: purchased Millipore, Inc. (KinaseProfiler service)
T30 sequence (Q86UE8 whole entry): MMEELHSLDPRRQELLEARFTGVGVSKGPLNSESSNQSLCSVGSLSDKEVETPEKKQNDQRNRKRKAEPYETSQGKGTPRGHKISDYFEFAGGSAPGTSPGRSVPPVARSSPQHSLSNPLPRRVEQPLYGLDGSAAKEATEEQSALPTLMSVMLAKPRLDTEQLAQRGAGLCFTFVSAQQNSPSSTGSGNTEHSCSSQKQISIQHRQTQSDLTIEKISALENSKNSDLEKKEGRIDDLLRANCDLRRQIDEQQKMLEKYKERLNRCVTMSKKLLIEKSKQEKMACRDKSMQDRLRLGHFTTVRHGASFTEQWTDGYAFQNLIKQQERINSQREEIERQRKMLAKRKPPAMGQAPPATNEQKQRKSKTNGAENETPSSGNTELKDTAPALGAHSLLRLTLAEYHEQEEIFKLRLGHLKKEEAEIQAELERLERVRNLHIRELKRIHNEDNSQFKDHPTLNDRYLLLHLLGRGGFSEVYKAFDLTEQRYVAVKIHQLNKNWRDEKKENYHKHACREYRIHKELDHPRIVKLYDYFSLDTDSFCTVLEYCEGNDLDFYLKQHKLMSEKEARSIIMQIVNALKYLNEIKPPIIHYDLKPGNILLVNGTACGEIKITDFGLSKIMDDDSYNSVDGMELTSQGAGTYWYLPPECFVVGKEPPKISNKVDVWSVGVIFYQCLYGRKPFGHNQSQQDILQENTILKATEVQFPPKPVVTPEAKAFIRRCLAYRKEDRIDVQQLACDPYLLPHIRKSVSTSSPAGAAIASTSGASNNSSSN
Method: as §1

TrkA = TrkA (Homo sapiens, UniProt P04629); assay: TrkA LanthaScreen Eu Kinase Binding Assay; design: 6HIS tagged cytoplasmic domain from Invitrogen, Catalog No. PV3144; purchased Invitrogen PV3144; conditions: averaged IC50; TR-FRET binding assay; read-out: TrkA Enzyme IC50
Method: TrkA binding activity was determined in a TrkA LanthaScreen™ Eu Kinase Binding Assay. 5 nM His-tagged recombinant human TrkA (6HIS tagged cytoplasmic domain from Invitrogen, Catalog No. PV3144) was incubated with 4 nM Alexa-Fluor® Tracer 236 (Invitrogen Cat. No. PV5592), 2 nM biotinylated anti-His (Invitrogen Cat. No. PV6090), and 2 nM europium-labeled Streptavidin (Invitrogen Cat. No. PV5899), in buffer (25 mM MOPS, pH 7.5, 5 mM MgCl2, 0.005% Triton X-100). Three fold serial dilutions of compounds of the invention in DMSO were added to a final percentage of 2% DMSO. After 60-minute incubation at 22° C., the reaction was measured using the EnVision mutlimode plate reader (PerkinElmer) via TR-FRET dual wavelength detection at […]. The percent of control was calculated using a ratiometric emission factor. The IC50 values were determined by fitting a four parameter model to the percent of control data.
Table A provides averaged IC50 values for compounds of the invention when tested in the assay of Example A, where A represents an averaged IC50 value<100 nM; B represents an averaged IC50 value from 100 to 1,000 nM; and C represents an averaged IC50 value from 1,000 to 10,000 nM.

COCCCc1cc(Cl)c(Cl)cc1NC(=O)Nc1c(C)c(-c2cnn(C)c2)nn1-c1ccccc1 [Example 15, 1-(4,5-dichloro-2-(3-methoxypropyl)phenyl)-3-(1′,4-dimethyl-1-phenyl-1H,1′H-[3,4′-bipyrazol]-5-yl)urea]
Avg POC (BLK_m): 118.5 POC | Avg POC (CDK2/cyclinE): 106.5 POC | Avg POC (CDK3/cyclinE): 101 POC | Avg POC (CK1delta): 111.5 POC | Avg POC (CK1gamma3): 112.5 POC | Avg POC (CK2): 94.5 POC | Avg POC (EGFR): 103 POC | Avg POC (EphA5): 115.5 POC | Avg POC (EphB4): 132.5 POC | Avg POC (FAK): 103.5 POC | Avg POC (MAPKAP-K5): 92 POC | Avg POC (MICK4_m): 137.5 POC | Avg POC (MKK6): 124.5 POC | Avg POC (MLK1): 110.5 POC | Avg POC (MSSK1): 122 POC | Avg POC (MST1): 94.5 POC | Avg POC (MST3): 137 POC | Avg POC (NEK7): 142 POC | Avg POC (PAK4): 110.5 POC | Avg POC (PKCtheta): 105 POC | Avg POC (PKCzeta): 103 POC | Avg POC (PRK2): 101.5 POC | Avg POC (PTK6): 124 POC | Avg POC (PhKgamma2): 110.5 POC | Avg POC (Pim-1): 108 POC | Avg POC (Pim-2): 142.5 POC | Avg POC (PrKX): 134 POC | Avg POC (SRPK2): 113.5 POC | Avg POC (TEC Activated): 101.5 POC | Avg POC (TLK2): 101 POC | IC50 (TrkA): < 100 nM
